Test: relative permittivity at various frequencies (dimensionless); xn = mol fraction of the nth substance listed
Conditions: 101.3 kPa, Liquid, Frequency=1 MHz, HP4284A LCR Meter with HP16452A measuring cell

COCCOCCOCCOC [2,5,8,11-tetraoxadodecane] + CCCCCCCCCCCC
Conditions | relative permittivity
288.15 K, x1 = 0.0993 | 2.3
288.15 K, x1 = 0.1981 | 2.61
288.15 K, x1 = 0.2498 | 2.79
288.15 K, x1 = 0.3051 | 3.01
288.15 K, x1 = 0.396 | 3.4
288.15 K, x1 = 0.5011 | 3.92
288.15 K, x1 = 0.5991 | 4.51
288.15 K, x1 = 0.7114 | 5.28
288.15 K, x1 = 0.7994 | 5.98
288.15 K, x1 = 0.8996 | 6.87
288.15 K, x1 = 0.9504 | 7.37
293.15 K, x1 = 0.0992 | 2.3
293.15 K, x1 = 0.2005 | 2.6
293.15 K, x1 = 0.252 | 2.78
293.15 K, x1 = 0.2988 | 2.95
293.15 K, x1 = 0.3978 | 3.37
293.15 K, x1 = 0.5003 | 3.87
293.15 K, x1 = 0.6016 | 4.45
293.15 K, x1 = 0.698 | 5.08
293.15 K, x1 = 0.7995 | 5.85
293.15 K, x1 = 0.8997 | 6.73
293.15 K, x1 = 0.9492 | 7.2
298.15 K, x1 = 0.088 | 2.25
298.15 K, x1 = 0.2006 | 2.58
298.15 K, x1 = 0.2494 | 2.74
298.15 K, x1 = 0.3046 | 2.95
298.15 K, x1 = 0.4127 | 3.4
298.15 K, x1 = 0.496 | 3.8
298.15 K, x1 = 0.5972 | 4.35
298.15 K, x1 = 0.6987 | 4.98
298.15 K, x1 = 0.8028 | 5.76
298.15 K, x1 = 0.9022 | 6.61
298.15 K, x1 = 0.9504 | 7.07
303.15 K, x1 = 0.099 | 2.26
303.15 K, x1 = 0.1997 | 2.56
303.15 K, x1 = 0.2517 | 2.73
303.15 K, x1 = 0.2994 | 2.9
303.15 K, x1 = 0.3976 | 3.3
303.15 K, x1 = 0.4991 | 3.76
303.15 K, x1 = 0.5969 | 4.29
303.15 K, x1 = 0.699 | 4.94
303.15 K, x1 = 0.8015 | 5.69
303.15 K, x1 = 0.9058 | 6.55
303.15 K, x1 = 0.9494 | 6.96
308.15 K, x1 = 0.0988 | 2.25
308.15 K, x1 = 0.1965 | 2.53
308.15 K, x1 = 0.2471 | 2.7
308.15 K, x1 = 0.307 | 2.91
308.15 K, x1 = 0.4071 | 3.31
308.15 K, x1 = 0.4983 | 3.73
308.15 K, x1 = 0.598 | 4.25
308.15 K, x1 = 0.6938 | 4.83
308.15 K, x1 = 0.7997 | 5.57
308.15 K, x1 = 0.9018 | 6.41
308.15 K, x1 = 0.9501 | 6.86
318.15 K, x1 = 0.0989 | 2.23
318.15 K, x1 = 0.2 | 2.51
318.15 K, x1 = 0.249 | 2.66
318.15 K, x1 = 0.297 | 2.82
318.15 K, x1 = 0.3929 | 3.18
318.15 K, x1 = 0.5026 | 3.66
318.15 K, x1 = 0.6015 | 4.16
318.15 K, x1 = 0.7035 | 4.76
318.15 K, x1 = 0.7989 | 5.4
318.15 K, x1 = 0.9004 | 6.19
318.15 K, x1 = 0.9505 | 6.62
328.15 K, x1 = 0.0988 | 2.23
328.15 K, x1 = 0.1986 | 2.49
328.15 K, x1 = 0.2483 | 2.62
328.15 K, x1 = 0.3062 | 2.81
328.15 K, x1 = 0.3961 | 3.14
328.15 K, x1 = 0.4986 | 3.56
328.15 K, x1 = 0.596 | 4.03
328.15 K, x1 = 0.6969 | 4.61
328.15 K, x1 = 0.7914 | 5.22
328.15 K, x1 = 0.8935 | 5.99
328.15 K, x1 = 0.9494 | 6.44

From the NIST ThermoML archive (doi:10.1016/j.jct.2004.08.003)
